Here are results for 1 compound from ChEMBL document CHEMBL1821572, “Discovery of a novel series of selective HCN1 blockers” (Bioorg Med Chem Lett, 2011).

Series [1] is filed under the species Mus musculus. Briefly: Toxicity in C57BL/6 mouse assessed as induction of bradycardia after 50 mins by ECG study. It counts as organism-based. Conditions: in vivo.
Series [2] addresses T1, Potassium/sodium hyperpolarization-activated cyclic nucleotide-gated channel 2 (Homo sapiens, UniProt Q9UL51).
T1 sequence (Q9UL51 whole entry): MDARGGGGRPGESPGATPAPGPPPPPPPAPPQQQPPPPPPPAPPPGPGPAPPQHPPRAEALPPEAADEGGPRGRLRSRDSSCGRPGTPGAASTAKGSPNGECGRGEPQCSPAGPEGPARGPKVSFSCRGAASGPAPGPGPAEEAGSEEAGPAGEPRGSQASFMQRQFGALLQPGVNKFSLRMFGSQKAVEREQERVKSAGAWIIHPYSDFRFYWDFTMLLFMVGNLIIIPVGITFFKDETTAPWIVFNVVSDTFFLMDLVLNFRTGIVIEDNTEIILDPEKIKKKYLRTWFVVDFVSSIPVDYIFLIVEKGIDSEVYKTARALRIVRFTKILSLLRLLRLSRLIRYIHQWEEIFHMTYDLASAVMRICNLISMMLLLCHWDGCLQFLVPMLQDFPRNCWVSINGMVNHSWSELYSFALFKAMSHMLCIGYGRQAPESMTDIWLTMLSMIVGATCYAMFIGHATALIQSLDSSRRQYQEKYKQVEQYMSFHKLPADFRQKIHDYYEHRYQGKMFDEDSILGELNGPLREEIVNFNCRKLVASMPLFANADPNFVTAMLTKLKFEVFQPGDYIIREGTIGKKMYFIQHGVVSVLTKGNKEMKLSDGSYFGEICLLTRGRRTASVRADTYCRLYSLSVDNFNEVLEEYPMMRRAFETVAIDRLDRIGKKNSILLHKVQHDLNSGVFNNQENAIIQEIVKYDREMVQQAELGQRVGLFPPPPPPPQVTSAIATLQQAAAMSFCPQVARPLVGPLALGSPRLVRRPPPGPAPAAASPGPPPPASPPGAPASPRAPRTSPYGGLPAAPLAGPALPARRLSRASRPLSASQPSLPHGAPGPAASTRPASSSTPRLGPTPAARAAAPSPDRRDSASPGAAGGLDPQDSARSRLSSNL
Briefly: Inhibition of human HCN2 heterologously expressed in HEK-293 cells after 30 mins by VIPR assay. It counts as cell-based, HEK293.

Series [3] addresses T2, Potassium/sodium hyperpolarization-activated cyclic nucleotide-gated channel 4 (Homo sapiens, UniProt Q9Y3Q4).
T2 sequence (Q9Y3Q4 whole entry): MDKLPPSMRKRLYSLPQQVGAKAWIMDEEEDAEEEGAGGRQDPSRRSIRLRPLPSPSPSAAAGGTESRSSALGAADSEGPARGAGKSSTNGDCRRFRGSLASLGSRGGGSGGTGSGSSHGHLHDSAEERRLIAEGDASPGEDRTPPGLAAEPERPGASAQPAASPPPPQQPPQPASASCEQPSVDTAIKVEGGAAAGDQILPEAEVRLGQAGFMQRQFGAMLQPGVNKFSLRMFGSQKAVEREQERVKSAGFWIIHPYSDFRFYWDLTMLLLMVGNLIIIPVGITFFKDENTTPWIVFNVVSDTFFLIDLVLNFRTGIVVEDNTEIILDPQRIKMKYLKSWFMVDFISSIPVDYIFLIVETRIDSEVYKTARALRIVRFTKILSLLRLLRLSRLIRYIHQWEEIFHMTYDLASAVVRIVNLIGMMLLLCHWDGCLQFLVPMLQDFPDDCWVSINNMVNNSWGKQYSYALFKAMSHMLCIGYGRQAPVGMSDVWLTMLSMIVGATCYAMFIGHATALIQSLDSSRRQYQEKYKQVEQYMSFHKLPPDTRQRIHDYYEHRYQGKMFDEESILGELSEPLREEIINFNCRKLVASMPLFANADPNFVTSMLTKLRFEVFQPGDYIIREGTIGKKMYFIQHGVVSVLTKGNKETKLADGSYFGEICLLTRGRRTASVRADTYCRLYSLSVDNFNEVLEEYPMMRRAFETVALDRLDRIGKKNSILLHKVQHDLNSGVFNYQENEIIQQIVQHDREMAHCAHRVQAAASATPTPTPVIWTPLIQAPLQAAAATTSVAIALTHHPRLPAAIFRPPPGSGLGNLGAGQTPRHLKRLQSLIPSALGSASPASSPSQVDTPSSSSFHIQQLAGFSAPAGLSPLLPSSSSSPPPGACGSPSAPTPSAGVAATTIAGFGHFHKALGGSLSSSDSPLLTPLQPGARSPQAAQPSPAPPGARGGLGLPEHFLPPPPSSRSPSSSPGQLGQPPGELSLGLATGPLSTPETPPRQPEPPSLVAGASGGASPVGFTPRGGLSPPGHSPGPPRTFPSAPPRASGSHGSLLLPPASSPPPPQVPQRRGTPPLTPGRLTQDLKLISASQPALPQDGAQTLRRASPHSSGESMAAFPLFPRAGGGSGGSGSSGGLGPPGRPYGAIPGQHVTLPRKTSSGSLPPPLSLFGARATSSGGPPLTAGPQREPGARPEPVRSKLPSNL
The series is described as follows: Inhibition of human HCN4 heterologously expressed in HEK-293 cells after 30 mins by VIPR assay. The format is cell-based, HEK293.

Series [4] deals with Mus musculus. Briefly: Antiallodynic activity in ip dosed C57BL/6 mouse spared-nerve injury model assessed as reduction of tactile allodynia after 60 mins. It counts as functional. Conditions: C57BL/6, ip, 1 h.
A short description of series [5]: Half life in human liver microsomes. It counts as ADME, Microsome.
For the next series, the species on record is Homo sapiens. The series is described as follows: Selectivity for human HCN1 over human HCN4.

Regarding `CCOc1ccccc1C(=O)NCC1(N2CCNCC2)CCCCC1`, the ED20 in the series listed under Mus musculus [1] is 25 mg/kg. In addition, the IC50 in series [2] is 5.01 µM; in series [3] it was 3.98 µM. For the same compound, the ED50 with Mus musculus [4] stood at 6 mg/kg. Besides, in series [5], the half-life is 3.92 h. The Selectivity ratio in the series filed under Homo sapiens worked out at 10.
